Data reported in patent publication EP1202975B1, “SUBSTITUTED POLYCYCLIC ARYL AND HETEROARYL PYRAZINONES USEFUL FOR SELECTIVE INHIBITION OF THE COAGULATION CASCADE” (Pharmacia Corporation, priority 1999, dated 2000).
Like-named read-outs stand apart in the source and are kept apart here.

What was measured:
TF-VIIa = molecular target: T1, TF-VIIa (Homo sapiens, UniProt P08709); assay: TF-VIIa Assay; format: biochemical
T1 construct: 2nM recombinant human factor VIIa; purchased American Diagnostica, Greenwich CT; host or cells: soluble TF made in house in E. coli
T1 sequence (P08709 213-466 limits assumed): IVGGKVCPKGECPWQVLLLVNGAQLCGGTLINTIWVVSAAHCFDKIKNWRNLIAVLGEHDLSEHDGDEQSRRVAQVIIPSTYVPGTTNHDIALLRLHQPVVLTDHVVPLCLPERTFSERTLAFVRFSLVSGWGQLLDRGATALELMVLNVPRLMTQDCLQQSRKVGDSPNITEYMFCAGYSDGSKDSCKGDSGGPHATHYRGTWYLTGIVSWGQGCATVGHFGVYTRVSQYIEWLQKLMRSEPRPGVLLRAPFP
T1 sequence (P08709 61-212 limits assumed): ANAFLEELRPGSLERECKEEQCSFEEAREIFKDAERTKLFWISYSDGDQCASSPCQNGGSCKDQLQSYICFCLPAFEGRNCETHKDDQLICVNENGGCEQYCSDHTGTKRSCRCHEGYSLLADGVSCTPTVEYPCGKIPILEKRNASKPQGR
T1 sequence (P13726 33-251 partner limits assumed): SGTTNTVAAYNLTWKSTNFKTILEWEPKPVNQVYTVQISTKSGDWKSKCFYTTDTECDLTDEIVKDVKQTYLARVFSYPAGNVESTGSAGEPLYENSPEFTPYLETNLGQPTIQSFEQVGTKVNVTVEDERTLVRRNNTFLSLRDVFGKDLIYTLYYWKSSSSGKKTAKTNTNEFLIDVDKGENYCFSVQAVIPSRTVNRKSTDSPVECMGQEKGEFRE

Human factor Xa = Human factor Xa (Homo sapiens, UniProt P00742)
Chain of Human factor Xa (P00742 235-488 limits assumed): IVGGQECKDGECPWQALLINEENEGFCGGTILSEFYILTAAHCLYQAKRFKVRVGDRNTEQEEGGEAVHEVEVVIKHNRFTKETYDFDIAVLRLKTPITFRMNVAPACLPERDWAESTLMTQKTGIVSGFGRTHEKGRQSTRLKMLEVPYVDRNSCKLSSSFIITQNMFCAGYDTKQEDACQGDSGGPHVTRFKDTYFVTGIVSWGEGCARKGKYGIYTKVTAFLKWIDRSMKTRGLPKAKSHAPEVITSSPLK
Chain of Human factor Xa (P00742 41-179 limits assumed): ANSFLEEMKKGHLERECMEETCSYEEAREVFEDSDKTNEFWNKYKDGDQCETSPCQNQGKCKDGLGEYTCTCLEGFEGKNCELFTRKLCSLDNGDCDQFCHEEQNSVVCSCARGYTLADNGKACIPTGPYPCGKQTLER

[1] = read-out: IC50 or % Inhibition TF-VIIa (30 µM); cells given as a plain number (IC50)
[2] = cells given as a plain number (IC50); read-out: IC50 or % Inhibition TF-VIIa (30 µM)
[3] = read-out: IC50 or % Inhibition TF-VIIa (30 µM); cells without % sign: IC50
[4] = cells without % sign: IC50; read-out: IC50 or % Inhibition TF-VIIa (30 µM)

IC50 (TF-VIIa; [1]) [nM]	IC50 or % Inhibition Factor Xa (30 µM) (Human factor Xa)	SMILES	other results
1800	0%	N=C(N)c1ccc(CNC(=O)Cn2c(-c3c(Cl)cccc3Cl)c(Cl)nc(NCCc3cccc(Cl)c3)c2=O)cc1 [1517-24]	
	0%	N=C(N)c1ccc(CNC(=O)Cn2c(-c3ccccc3)c(Cl)nc(NC3CCCCC3)c2=O)cc1 [1517-25]	IC50 (TF-VIIa; [2]): 1400 nM
	0%	CCCC(CCC)Nc1nc(Cl)c(-c2ccccc2)n(CC(=O)NCc2ccc(C(=N)N)cc2)c1=O [1517-26]	IC50 (TF-VIIa; [2]): 1800 nM
	0%	CC(C)N(C)c1nc(Cl)c(-c2ccccc2)n(CC(=O)NCc2ccc(C(=N)N)cc2)c1=O [1517-31]	IC50 (TF-VIIa; [2]): 9100 nM
	0%	CCCNc1nc(Cl)c(-c2ccccc2)n(CC(=O)NCc2ccc(C(=N)N)cc2)c1=O [1517-33]	IC50 (TF-VIIa; [2]): 400 nM
3000	0%	C[Si](C)(C)CNc1nc(Cl)c(-c2ccccc2)n(CC(=O)NCc2ccc(C(=N)N)cc2)c1=O [1517-36]	
	0%	N=C(N)c1ccc(CNC(=O)Cn2c(-c3ccccc3)c(Cl)nc(NCC3CC3)c2=O)cc1 [1517-43]	IC50 or % Inhibition TF-VIIa (30 µM) (TF-VIIa): 25%
1200	0%	CCCCCNc1nc(Cl)c(-c2ccccc2)n(CC(=O)NCc2ccc(C(=N)N)cc2)c1=O [1517-48]	
	34%	N=C(N)c1ccc(CNC(=O)Cn2c(-c3cccc(N)c3)c(Cl)nc(NCCN3CCCC3)c2=O)cc1 [1543-03]	IC50 (TF-VIIa; [3]): 640 nM
	14%	CNc1nc(Cl)c(-c2cccc(N)c2)n(CC(=O)NCc2ccc(C(=N)N)cc2)c1=O [1543-05]	IC50 (TF-VIIa; [4]): 60 nM
	19%	N=C(N)c1ccc(CNC(=O)Cn2c(-c3cccc(N)c3)c(Cl)nc(NCCCn3ccnc3)c2=O)cc1 [1543-07]	IC50 (TF-VIIa; [3]): 210 nM
	12%	CN(C)CCNc1nc(Cl)c(-c2cccc(N)c2)n(CC(=O)NCc2ccc(C(=N)N)cc2)c1=O [1543-09]	IC50 (TF-VIIa; [4]): 690 nM
	12%	N=C(N)c1ccc(CNC(=O)Cn2c(-c3cccc(N)c3)c(Cl)nc(NCCCO)c2=O)cc1 [1543-13]	IC50 (TF-VIIa; [4]): 90 nM
	41%	N=C(N)c1ccc(CNC(=O)Cn2c(-c3cccc(N)c3)c(Cl)nc(NCCN3CCCCC3)c2=O)cc1 [1543-15]	IC50 (TF-VIIa; [3]): 950 nM
	11%	CC(CNc1nc(Cl)c(-c2cccc(N)c2)n(CC(=O)NCc2ccc(C(=N)N)cc2)c1=O)N(C)C (centres unmarked) [1543-19]	IC50 (TF-VIIa; [3]): 220 nM
	27%	N=C(N)c1ccc(CNC(=O)Cn2c(-c3cccc(N)c3)c(Cl)nc(NCCCCN3CCCC3)c2=O)cc1 [1543-21]	IC50 (TF-VIIa; [3]): 290 nM
	27%	N=C(N)c1ccc(CNC(=O)Cn2c(-c3cccc(N)c3)c(Cl)nc(NCCCN3CCCC3)c2=O)cc1 [1543-27]	IC50 (TF-VIIa; [3]): 380 nM

IC50 (TF-VIIa; [1]) [nM]	IC50 or % Inhibition Factor Xa (30 µM) (Human factor Xa)	SMILES	other results
	8%	CCNc1nc(Cl)c(-c2cccc(N)c2)n(CC(=O)NCc2ccc(C(=N)N)cc2F)c1=O [1543-31]	IC50 (TF-VIIa; [3]): 40 nM
	14%	N=C(N)c1ccc(CNC(=O)Cn2c(-c3cccc(N)c3)c(Cl)nc(NC3CC3)c2=O)c(F)c1 [1543-33]	IC50 (TF-VIIa; [3]): 30 nM
	20%	N=C(N)c1ccc(CNC(=O)Cn2c(-c3cccc(N)c3)c(Cl)nc(NC3CCCC3)c2=O)c(F)c1 [1543-34]	IC50 (TF-VIIa; [3]): 80 nM
	8%	CCCNc1nc(Cl)c(-c2cccc(N)c2)n(CC(=O)NCc2ccc(C(=N)N)cc2F)c1=O [1543-35]	IC50 (TF-VIIa; [3]): 70 nM
	15%	CCCCNc1nc(Cl)c(-c2cccc(N)c2)n(CC(=O)NCc2ccc(C(=N)N)cc2F)c1=O [1543-36]	IC50 (TF-VIIa; [3]): 80 nM
	14%	CC(C)CNc1nc(Cl)c(-c2cccc(N)c2)n(CC(=O)NCc2ccc(C(=N)N)cc2F)c1=O [1543-38]	IC50 (TF-VIIa; [3]): 90 nM
	10%	CC(C)Nc1nc(Cl)c(-c2cccc(N)c2)n(CC(=O)NCc2ccc(C(=N)N)cc2F)c1=O [1543-40]	IC50 (TF-VIIa; [3]): 40 nM
	6%@30	N=C(N)c1ccc(CNC(=O)Cn2c(Cc3ccccc3)c(Cl)nc(NCCc3ccccc3)c2=O)cc1 [Example 20]	IC50 or % Inhibition TF-VIIa (30 µM) (TF-VIIa): 41%@30
	0%	N=C(N)NCC#CCNC(=O)Cn1c(-c2ccccc2)cnc(NCCc2ccccc2)c1=O [Example 36]	IC50 or % Inhibition TF-VIIa (30 µM) (TF-VIIa): 5%
1800	0%	N=C(N)NC/C=C\CNC(=O)Cn1c(-c2ccccc2)cnc(NCCc2ccccc2)c1=O [Example 37]	
900	22%	Nc1n[nH]c2ccc(CNC(=O)Cn3c(-c4ccccc4)cnc(NCCc4ccccc4)c3=O)cc12 [Example 38]	
1700	0%	Nc1n[nH]c2cc(CNC(=O)Cn3c(-c4ccccc4)cnc(NCCc4ccccc4)c3=O)ccc12 [Example 39]	
	0%	N=C(N)c1ccc(CNC(=O)Cn2c(-c3cccc(N)c3)c(Cl)nc(NC3CCC3)c2=O)cc1F [Example 40]	IC50 (TF-VIIa; [2]): 60 nM
500	0%	CC(C)Nc1nc(Cl)c(-c2cccc(N)c2)n(CC(=O)NCc2ccc(C(=N)N)c(F)c2)c1=O [Example 42]	
250	0%	CC(C)Nc1ncc(-c2cccc(N)c2)n(CC(=O)NCc2ccc(C(=N)N)c(F)c2)c1=O [Example 43]	
	0%	CC(C)Nc1nc(Cl)c(-c2cccc([N+](=O)[O-])c2)n(CC(=O)NCc2ccc(C(N)=NO)cc2)c1=O [Example 61]	IC50 or % Inhibition TF-VIIa (30 µM) (TF-VIIa): 1%

Further lines, the compound ahead of its results:

SMILES	IC50 (TF-VIIa; [1]) [nM]	IC50 or % Inhibition Factor Xa (30 µM) (Human factor Xa)	other results
CN1CCCC1CCNc1nc(Cl)c(-c2ccccc2)n(CC(=O)NCc2ccc(C(=N)N)cc2)c1=O (centres unmarked) [1512-46]	11700	10%	
N=C(N)c1ccc(CNC(=O)Cn2c(-c3ccccc3)c(Cl)nc(NCCc3ccccn3)c2=O)cc1 [1512-47]	3500	13%	
N=C(N)c1ccc(CNC(=O)Cn2c(-c3ccsc3)c(Cl)nc(NCc3ccccc3)c2=O)cc1 [1517-01]	1200	0%	
C[C@@H](C(=O)NCc1ccc(C(=N)N)cc1)n1c(-c2ccccc2)c(Cl)nc(NCc2ccccc2)c1=O [1517-03]	9000	0%	
CSCC(C(=O)NCc1ccc(C(=N)N)cc1)n1c(-c2ccccc2)c(Cl)nc(NCc2ccccc2)c1=O (centres unmarked) [1517-04]	5700	0%	
C[C@H](C(=O)NCc1ccc(C(=N)N)cc1)n1c(-c2ccccc2)c(Cl)nc(NCc2ccccc2)c1=O [1517-05]	4600	0%	
N=C(N)c1ccc(CNC(=O)Cn2c(-c3c(Cl)cccc3Cl)c(Cl)nc(NCc3ccccc3)c2=O)cc1 [1517-06]	2500	0%	
N=C(N)c1ccc(CNC(=O)Cn2c(-c3ccsc3)c(Cl)nc(NC3CCC3)c2=O)cc1 [1517-07]	400	0%	
N=C(N)c1ccc(CNC(=O)C(Cc2ccccc2)n2c(-c3ccccc3)c(Cl)nc(NC3CCC3)c2=O)cc1 (centres unmarked) [1517-08]		0%	IC50 or % Inhibition TF-VIIa (30 µM) (TF-VIIa): 43%
C[C@@H](C(=O)NCc1ccc(C(=N)N)cc1)n1c(-c2ccccc2)c(Cl)nc(NC2CCC2)c1=O [1517-09]	2600	0%	
CSCC(C(=O)NCc1ccc(C(=N)N)cc1)n1c(-c2ccccc2)c(Cl)nc(NC2CCC2)c1=O (centres unmarked) [1517-10]	2000	0%	
C[C@H](C(=O)NCc1ccc(C(=N)N)cc1)n1c(-c2ccccc2)c(Cl)nc(NC2CCC2)c1=O [1517-11]	3000	0%	
N=C(N)c1ccc(CNC(=O)Cn2c(-c3c(Cl)cccc3Cl)c(Cl)nc(NC3CCC3)c2=O)cc1 [1517-12]	800	0%	
N=C(N)c1ccc(CNC(=O)Cn2c(-c3ccsc3)c(Cl)nc(NCCc3ccccc3)c2=O)cc1 [1517-13]	600	0%	
N=C(N)c1ccc(CNC(=O)C(Cc2ccccc2)n2c(-c3ccccc3)c(Cl)nc(NCCc3ccccc3)c2=O)cc1 (centres unmarked) [1517-14]		0%	IC50 or % Inhibition TF-VIIa (30 µM) (TF-VIIa): 30%
C[C@@H](C(=O)NCc1ccc(C(=N)N)cc1)n1c(-c2ccccc2)c(Cl)nc(NCCc2ccccc2)c1=O [1517-15]	3100	0%	
CSCC(C(=O)NCc1ccc(C(=N)N)cc1)n1c(-c2ccccc2)c(Cl)nc(NCCc2ccccc2)c1=O (centres unmarked) [1517-16]	3400	0%	
C[C@H](C(=O)NCc1ccc(C(=N)N)cc1)n1c(-c2ccccc2)c(Cl)nc(NCCc2ccccc2)c1=O [1517-17]	1800	0%	
N=C(N)c1ccc(CNC(=O)Cn2c(-c3c(Cl)cccc3Cl)c(Cl)nc(NCCc3ccccc3)c2=O)cc1 [1517-18]	1300	0%	
N=C(N)c1ccc(CNC(=O)Cn2c(-c3ccsc3)c(Cl)nc(NCCc3cccc(Cl)c3)c2=O)cc1 [1517-19]	900	0%	
N=C(N)c1ccc(CNC(=O)C(Cc2ccccc2)n2c(-c3ccccc3)c(Cl)nc(NCCc3cccc(Cl)c3)c2=O)cc1 (centres unmarked) [1517-20]		0%	IC50 or % Inhibition TF-VIIa (30 µM) (TF-VIIa): 22%
C[C@H](C(=O)NCc1ccc(C(=N)N)cc1)n1c(-c2ccccc2)c(Cl)nc(NCCc2cccc(Cl)c2)c1=O [1517-23]	2300	0%	
